We go through one compound from ChEMBL document CHEMBL5625263, “Discovery of a novel series of selective macrocyclic PKCTheta inhibitors” (Bioorg Med Chem Lett, 2024).

Values after ≈ are worked out from the molar mass of the structure shown.

A short description of data set [1]: Selectivity ratio of inhibition of PKCeta (unknown origin) to inhibition of PKC theta (unknown origin) at 1 mM ATP concentration.
A short description of data set [2]: Selectivity ratio of inhibition of CLK1 (unknown origin) to inhibition of PKC theta (unknown origin) at 1 mM ATP concentration.
Data set [3] is described as follows: Selectivity ratio of inhibition of GSK3beta (unknown origin) to inhibition of PKC theta (unknown origin) at 1 mM ATP concentration.
Data set [4] in a line: Selectivity ratio of inhibition of PKCdelta (unknown origin) to inhibition of PKC theta (unknown origin) at 1 mM ATP concentration.
Data set [5] in a line: Apparent permeability of a compound in human Caco-2 cells. The data set is classed as ADME, cell-based. In general terms: Caco-2 monolayers are a common model of the intestinal barrier.
The target in data set [6] is T1, Protein kinase C theta type (Homo sapiens, UniProt Q04759). Put plainly: Inhibition of PKC theta (unknown origin) in presence of ATP at Km.
T1 sequence (Q04759 whole entry): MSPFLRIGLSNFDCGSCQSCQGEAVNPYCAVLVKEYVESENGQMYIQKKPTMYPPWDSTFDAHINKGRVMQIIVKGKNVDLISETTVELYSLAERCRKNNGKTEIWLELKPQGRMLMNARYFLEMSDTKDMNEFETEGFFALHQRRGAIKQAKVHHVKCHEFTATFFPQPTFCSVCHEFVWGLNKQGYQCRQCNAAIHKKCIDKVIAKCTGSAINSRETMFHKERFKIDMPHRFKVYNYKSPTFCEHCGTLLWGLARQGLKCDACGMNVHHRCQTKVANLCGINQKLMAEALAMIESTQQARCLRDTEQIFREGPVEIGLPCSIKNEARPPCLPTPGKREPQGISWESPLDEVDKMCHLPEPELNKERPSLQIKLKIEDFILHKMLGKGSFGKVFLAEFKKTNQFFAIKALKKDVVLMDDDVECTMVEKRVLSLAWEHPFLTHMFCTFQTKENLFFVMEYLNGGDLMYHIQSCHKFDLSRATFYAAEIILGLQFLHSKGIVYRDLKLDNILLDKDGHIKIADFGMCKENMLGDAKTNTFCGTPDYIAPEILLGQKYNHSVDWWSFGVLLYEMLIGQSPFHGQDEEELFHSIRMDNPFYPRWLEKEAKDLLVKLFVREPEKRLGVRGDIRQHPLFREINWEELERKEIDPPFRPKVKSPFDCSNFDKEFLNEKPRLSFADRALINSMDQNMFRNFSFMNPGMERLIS
Data set [7] in a line: Solubility of the compound. Type of data set: physicochemical.
Data set [8] in a line: Selectivity ratio of inhibition of RSK3 (unknown origin) to inhibition of PKC theta (unknown origin) at 1 mM ATP concentration.
The nature of data set [9]: Oral bioavailability in rat. Type of data set: ADME, organism-based. As to conditions: in vivo.
The target of data set [10] is T1, Protein kinase C theta type. Put plainly: Inhibition of PKC theta in TCR-stimulated human PBMC assessed as inhibition of IL-2 release. Type of data set: cell-based.
Data set [11] has the same target. Put plainly: Inhibition of PKC theta (unknown origin) in presence of 1 mM ATP.
Data set [12] in a line: Selectivity ratio of inhibition of PI3K-C2beta (unknown origin) to inhibition of PKC theta (unknown origin) at 1 mM ATP concentration.
The nature of data set [13]: Efflux ratio of apparent permeability across basolateral to apical side over apical to basolateral side in human Caco-2 cells. Type of data set: ADME, cell-based.
The target in data set [14] is T2, Protein kinase C alpha type (Homo sapiens, UniProt P17252). Put plainly: Inhibition of PKC alpha (unknown origin) in presence of 1 mM ATP.
Data set [15] is described as follows: Selectivity ratio of inhibition of PKACalpha (unknown origin) to inhibition of PKC theta (unknown origin) at 1 mM ATP concentration.
A short description of data set [16]: Half life in rat. The data set is classed as ADME. As to conditions: in vivo.
Data set [17] is described as follows: Selectivity ratio of inhibition of MSK1 (unknown origin) to inhibition of PKC theta (unknown origin) at 1 mM ATP concentration.
Data set [18] in a line: Selectivity ratio of inhibition of HGK (unknown origin) to inhibition of PKC theta (unknown origin) at 1 mM ATP concentration.
Data set [19] can be described thus: Selectivity ratio of inhibition of TRKA (unknown origin) to inhibition of PKC theta (unknown origin) at 1 mM ATP concentration.
Data set [20] is described as follows: Selectivity ratio of inhibition of PKCbeta1 (unknown origin) to inhibition of PKC theta (unknown origin) at 1 mM ATP concentration.
Data set [21] is described as follows: Selectivity ratio of inhibition of FLT3 (unknown origin) to inhibition of PKC theta (unknown origin) at 1 mM ATP concentration.
A short description of data set [22]: Selectivity ratio of inhibition of AURB (unknown origin) to inhibition of PKC theta (unknown origin) at 1 mM ATP concentration.
Data set [23] deals with T2, Protein kinase C alpha type. Description: Inhibition of PKC alpha (unknown origin) in presence of ATP at Km.
A short description of data set [24]: Clearance in rat. The data set is classed as ADME. As to conditions: in vivo.

As for `CC1CCCOc2nc(ccc2C(N)=O)-n2c(=O)[nH]c3nccc(c32)O1` (centres undefined), the Selectivity ratio amounted to 43 in [1]; 66 in data set [2]; 66 in data set [3]; 38 in [4]; 311 in [8]; 133 in data set [12]. The Selectivity ratio amounted to 501 in data set [15]; 322 in data set [17]; 51 in [18]; 491 in [19]; 147 in data set [20]; 21 in data set [21]. Further, the Selectivity ratio in data set [22] was found to be 763. Besides, in data set [5], the Papp stood at 3.9 ×10⁻⁶ cm/s. The IC50 in data set [6] was 0.9 nM; in [10], 29 nM; in [11], 12 nM; in data set [14], 6500 nM; in [23], 770 nM. In data set [7], the concentration in solution (solubility) came to 300 µM (≈ 107 µg/mL). In addition, the bioavailability in [9] came to 53%. Further, in [13], the efflux ratio is 8. The same compound gave a half-life in data set [16] of 2.2 h. Further, the clearance in data set [24] was 19.6 mL/min/kg.

As a reminder, the Papp is the rate of passage across a membrane or cell layer, normalised by area and donor concentration. A word on the IC50: it is the concentration needed to halve the response being measured. Usually solubility stands for how much of the substance goes into solution per volume. A lower solubility goes with little dissolved substance. In general, bioavailability refers to dose-corrected exposure relative to a reference, in per cent. Broadly, the efflux ratio is the permeability from basolateral to apical divided by that in the opposite direction, in the common usage. A word on the half-life: it is the time in which the quantity being followed falls by half. The clearance is the rate of elimination divided by the concentration. High values mean a high capacity for elimination, low ones a low capacity for elimination.
